According to patent publication US8859009B2, “Method of fixing antibacterial agent and article obtained by the method” (Hiroshima University, priority 2008, dated 2014):

Test system: strain GDH18 of Candida Albicans
Assay: Antibacterial-property test on hemocytometer cover glass test pieces (colour change of agar), Example 3
Type: cell-based
Method: A hemocytometer cover glass was used as a test piece of an article on which an antibacterial agent is fixed. A strain GDH18 of Candida Albicans was used as the bacteria for use in the antibacterial-property test. The bacteria was incubated on Sabouraud agar for 18 hours and a bacteria solution having bacteria concentration of 1×10^6 cells/mL was prepared using ultra pure water (MQ water). The test pieces were immersed for 1 minute in approximately 30 mL of ozone water (0.4 to 0.6 ppm) produced by using ultra pure water and “Ozone Dash” manufactured by Ozone Total System Co., Ltd. The test pieces were then drained on a filtering paper and immersed for 5 minutes in following aqueous solutions, respectively: Each test piece was then taken out of the aqueous solution, immediately washed with water such that excess antibacterial composition was removed, whereby test pieces for the antibacterial-property test were obtained. […] Each test piece was left for 2 hours at the room temperature to wait for sedimentation of the bacteria. Thereafter, 5 mL of Sabouraud agar containing chlorophenol red as a pH indicator (Candida yellow agar, manufactured by Fuji Pharma Co., Ltd.) was added to each test piece and the respective test pieces were continually incubated at 37° C. […] Antibacterial property was evaluated using such change in color as described above of the agar as an index.

`CCCCCCCCCCCCCCCCCC[N+](C)(C)CCC[Si](OCC)(OCC)OCC.[Cl-]` [EtAC, octadecyldimethyl(3-triethoxysilylpropyl)ammonium chloride] was tested, and the antibacterial performance (control without ozone water treatment, EtAC treatment 5 minutes) was “hardly exhibited antibacterial performance”, the “color of the agar” value (upper control: immersed in MQ water (no ozone water), then 70% ethanol solution of EtAC 5 minutes, 45 hours) was “strongly yellow” and the “number of bacteria cells” value (upper control: immersed in MQ water (no ozone water), then 70% ethanol solution of EtAC 5 minutes, 45 hours, from agar colour) was no less than 5e+07 mL⁻¹.
